Source: patent US20220324835A1 (Nurix Therapeutics, Inc., priority 2018, published 2022)

Key:
Cbl-b [1] = biological target: T1, Cbl-b (Homo sapiens, UniProt Q13191); assay: Cbl-b inhibition assay (Cbl-b activity assay, FRET, Biological Example 1; 100 mM NaCl, 60 nM Src kinase); assay type: biochemical; details: upper bound stated in text lists; read-out: IC50 values in the Cbl-b inhibition assay of Biological Example 1
Outline: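 N-terminally biotinylated Avi-tagged Cbl-b was mixed with Src kinase, UbcH5B covalently conjugated to Bodipy-fluorescein ubiquitin, and streptavidin-terbium. Src phosphorylation lets Cbl-b bind UbcH5B-Ub, giving terbium-fluorescein FRET; inhibition is read as loss of FRET signal.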

T-cell [2] = assay: IL-2 secretion from T-cells co-stimulated with anti-CD3 and anti-CD28 antibody (Biological Example 2); assay type: cell-based, human; details: Homo sapiens, T-cell, read-out: IL-2 secretion Anti-CD3/Anti-CD28 stimulation; for fold induction at 0.3 µM: 0.3 μM Cbl-b inhibitor; for fold induction at 1 µM: 1 μM Cbl-b inhibitor; for fold induction at 4 µM: 4 μM Cbl-b inhibitor
Outline: (§1)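 Values are fold-change over baseline: readings (IL-2 release, CD25 staining) from inhibitor-treated T-cells divided against untreated cells […]. No detailed procedure stated.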

T-cell [3] = assay: IL-2 secretion from T-cells stimulated with anti-CD3 antibody alone (Biological Example 2); assay type: cell-based, human; details: T-cell, read-out: IL-2 secretion Anti-CD3 stimulation; for fold induction at 1 µM: 1 μM Cbl-b inhibitor; for fold induction at 8 µM: 8 μM Cbl-b inhibitor
Cbl-b [4] = biological target: T1, Cbl-b; assay: Cbl-b activity assay (Cbl-b inhibition assay), TR-FRET of Cbl-b interaction with UbcH5B-Ub; assay type: biochemical; details: assay buffer with 100 mM NaCl, 60 nM Src kinase; read-out: Cbl-b activity IC50
Outline: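 Compound-treated Cbl-b was incubated 1.5 h with Src kinase (60 nM final; 30 nM for asterisked values, which also used 50 mM instead of 100 mM NaCl), 1 mM ATP and 5 mM MgCl2. Binding to fluorescent Ub-loaded UbcH5B (C85K mutant) was then read by TR-FRET after 1 h more.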

T-cell [5] = assay: CD25 cell surface staining on T-cells co-stimulated with anti-CD3 and anti-CD28 antibody (Biological Example 2); assay type: cell-based, human; details: Homo sapiens, T-cell, read-out: CD25 staining Anti-CD3/Anti-CD28 stimulation; for fold induction at 0.3 µM: 0.3 μM Cbl-b inhibitor; for fold induction at 1 µM: 1 μM Cbl-b inhibitor; for fold induction at 4 µM: 4 μM Cbl-b inhibitor
Outline: as §1

T-cell [6] = assay: CD25 cell surface staining on T-cells stimulated with anti-CD3 antibody alone (Biological Example 2); assay type: cell-based, human; details: T-cell, read-out: CD25 staining Anti-CD3 stimulation; for fold induction at 1 µM: 1 μM Cbl-b inhibitor; for fold induction at 8 µM: 8 μM Cbl-b inhibitor
[7] = fold change over baseline (anti-CD3/anti-CD28 stimulated T-cells without inhibitor)
[8] = Homo sapiens, fold change over baseline (anti-CD3/anti-CD28 stimulated T-cells without inhibitor)
[9] = fold change over baseline, primary human total T-cells

T1 sequence (Q13191 36-427): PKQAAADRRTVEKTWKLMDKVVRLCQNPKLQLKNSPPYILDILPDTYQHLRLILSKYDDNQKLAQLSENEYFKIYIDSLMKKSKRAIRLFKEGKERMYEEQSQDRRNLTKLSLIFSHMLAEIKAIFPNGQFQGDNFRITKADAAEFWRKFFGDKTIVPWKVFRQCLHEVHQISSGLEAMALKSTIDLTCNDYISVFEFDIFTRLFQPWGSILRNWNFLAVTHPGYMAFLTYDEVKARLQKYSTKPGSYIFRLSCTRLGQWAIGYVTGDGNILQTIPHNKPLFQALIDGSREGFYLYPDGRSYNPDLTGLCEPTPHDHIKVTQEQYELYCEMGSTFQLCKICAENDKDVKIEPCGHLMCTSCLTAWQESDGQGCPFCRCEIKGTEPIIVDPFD

SMILES	IC50 (Cbl-b [1])	fold induction at 0.3 µM (T-cell [2]; [7])	fold induction at 1 µM (T-cell [2]; [7])	fold induction at 1 µM (T-cell [3]; [8])	IC50 (Cbl-b [4])	fold induction at 0.3 µM (T-cell [5]; [7])	fold induction at 1 µM (T-cell [5]; [7])	fold induction at 1 µM (T-cell [6]; [8])	fold induction at 0.3 µM (T-cell [2]; [9])	fold induction at 1 µM (T-cell [2]; [9])	fold induction at 4 µM (T-cell [2]; [9])	fold induction at 1 µM (T-cell [3]; [9])	fold induction at 8 µM (T-cell [3]; [9])	fold induction at 0.3 µM (T-cell [5]; [9])	fold induction at 1 µM (T-cell [5]; [9])	fold induction at 4 µM (T-cell [5]; [9])	fold induction at 1 µM (T-cell [6]; [9])	fold induction at 8 µM (T-cell [6]; [9])
Cn1cnnc1CC1(c2cccc(NC(=O)c3cc(CN4CCCCC4)nc(C4CC4)n3)c2)COC1 [Example 589, 2-Cyclopropyl-N-(3-(3-((4-methyl-4H-1,2,4-triazol-3-yl)methyl)oxetan-3-yl)phenyl)-6-(piperidin-1-ylmethyl)pyrimidine-4-carboxamide]	≤ 100 nM	> 7.5	> 7.5	> 0.201	< 100 nM	> 1.76	> 1.76	> 1										
CCOC1CCCN(Cc2cc3c(c(C(F)(F)F)c2)CN(c2cccc(C4(Cc5nncn5C)COC4)c2)C3=O)C1 (stereo not shown) [Example 629, 6-((3-ethoxypiperidin-1-yl)methyl)-2-(3-(3-((4-methyl-4H-1,2,4-triazol-3-yl)methyl)oxetan-3-yl)phenyl)-4-(trifluoromethyl)isoindolin-1-one]	≤ 100 nM	> 7.5	> 7.5	> 0.201	< 100 nM	1.51 to 1.75	1.51 to 1.75	> 1										
Cc1cc(C(=O)Nc2cccc(C3(Cc4nncn4C)COC3)c2)nc(C(F)(F)F)n1 [Compound 338, 6-methyl-N-(3-(3-((4-methyl-4H-1,2,4-triazol-3-yl)methyl)oxetan-3-yl)phenyl)-2-(trifluoromethyl)pyrimidine-4-carboxamide]	≤ 100 nM				< 100 nM				1.01 to 2.5	2.51 to 5	> 7.5	0.101 to 0.15	> 0.201	1.01 to 1.3	1.01 to 1.3	1.01 to 1.3	0.801 to 1	> 1
Cc1cc(C(=O)Nc2cccc(C3(Cc4nncn4C)COC3)c2)nc(C2CC2)c1 [Compound 339, 6-cyclopropyl-4-methyl-N-(3-(3-((4-methyl-4H-1,2,4-triazol-3-yl)methyl)oxetan-3-yl)phenyl)picolinamide]	≤ 100 nM				< 100 nM				5 to 7.5	> 7.5	> 7.5	> 0.201	> 0.201	1.31 to 1.5	1.31 to 1.5	1.51 to 1.75	> 1	> 1
Cn1cnnc1CC1(c2cccc(N3Cc4c(cc(C5CC5)nc4C4CC4)C3=O)c2)COC1 [Example 568, 4,6-Dicyclopropyl-2-(3-(3-((4-methyl-4H-1,2,4-triazol-3-yl)methyl)oxetan-3-yl)phenyl)-2,3-dihydro-1H-pyrrolo[3,4-c]pyridin-1-one]	≤ 100 nM	1.01 to 2.5	1.01 to 2.5	0.101 to 0.15	< 100 nM	1.01 to 1.3	1.01 to 1.3	0.801 to 1										
Cc1cc(C(=O)Nc2cccc(C3(Cc4nncn4C)COC3)c2)n2nccc2n1 [Example 596, 5-Methyl-N-(3-(3-((4-methyl-4H-1,2,4-triazol-3-yl)methyl)oxetan-3-yl)phenyl)pyrazolo[1,5-a]pyrimidine-7-carboxamide]	≤ 300 nM	1.01 to 2.5	1.01 to 2.5	< 0.05	100 to 300 nM	1.01 to 1.3	1.01 to 1.3	0.601 to 0.8										
Cn1cnnc1CC1(c2cccc(N3Cc4c(cc(N5CC6(C5)CC(F)(F)C6)cc4C(F)(F)F)C3=O)c2)COC1 [Example 602, 6-(6,6-difluoro-2-azaspiro[3.3]heptan-2-yl)-2-(3-(3-((4-methyl-4H-1,2,4-triazol-3-yl)methyl)oxetan-3-yl)phenyl)-4-(trifluoromethyl)isoindolin-1-one]	≤ 100 nM	5 to 7.5	> 7.5	0.101 to 0.15	< 100 nM	1.01 to 1.3	1.31 to 1.5	> 1										
C[C@H](Cc1nncn1C)c1cc(-c2cncs2)nc(N2Cc3c(cccc3C(F)(F)F)C2=O)c1 [Example 682, (R)-2-(4-(1-(4-methyl-4H-1,2,4-triazol-3-yl)propan-2-yl)-6-(thiazol-5-yl)pyridin-2-yl)-4-(trifluoromethyl)isoindolin-1-one]	≤ 1000 nM	1.01 to 2.5	1.01 to 2.5	0.051 to 0.1	301 to 1000 nM	1.01 to 1.3	1.01 to 1.3	< 0.6										
Cn1cnnc1CC1(c2cccc(N3Cc4c(cc(N5CC6(CCC6(F)F)C5)cc4C(F)(F)F)C3=O)c2)COC1 [Example 603, 6-(5,5-difluoro-2-azaspiro[3.3]heptan-2-yl)-2-(3-(3-((4-methyl-4H-1,2,4-triazol-3-yl)methyl)oxetan-3-yl)phenyl)-4-(trifluoromethyl)isoindolin-1-one]	≤ 100 nM	1.01 to 2.5	2.51 to 5	< 0.05	< 100 nM	1.01 to 1.3	1.01 to 1.3	0.601 to 0.8										
Cn1cnnc1CC1(c2cccc(NC(=O)c3cc(C4CC4)nc(C4CC4)n3)c2)COC1 [Compound 347, 2,6-dicyclopropyl-N-(3-(3-((4-methyl-4H-1,2,4-triazol-3-yl)methyl)oxetan-3-yl)phenyl)pyrimidine-4-carboxamide]	≤ 100 nM				< 100 nM				2.51 to 5	> 7.5	> 7.5	0.151 to 0.2	> 0.201	1.01 to 1.3	1.01 to 1.3	1.31 to 1.5	> 1	> 1
Cc1cc(C(=O)Nc2cccc([C@H]3C[C@H]3c3nncn3C)c2)nc(C2CC2)n1 [Compound 333, 2-cyclopropyl-6-methyl-N-{3-[(1 S,2R)-2-(4-methyl-1,2,4-triazol-3-yl)cyclopropyl]phenyl}pyrimidine-4-carboxamide]	≤ 300 nM				100 to 300 nM				1.01 to 2.5	2.51 to 5	5 to 7.5	0.101 to 0.15	> 0.201	1.01 to 1.3	1.01 to 1.3	1.01 to 1.3	0.801 to 1	> 1
Cc1cc(C(=O)Nc2cccc(C3(C(F)(F)c4nncn4C)CC3)c2)nc(C2CC2)n1 [Compound 346, 2-cyclopropyl-N-(3-{1-[difluoro(4-methyl-4H-1,2,4-triazol-3-yl)methyl]cyclopropyl}phenyl)-6-methylpyrimidine-4-carboxamide]	≤ 100 nM				< 100 nM				1.01 to 2.5	2.51 to 5		0.101 to 0.15		1.01 to 1.3	1.01 to 1.3		0.601 to 0.8	
